Experimental data from ChEMBL document CHEMBL3045635, “Synthesis and in vitro antimicrobial evaluation of novel 2-amino-6-(phenylthio)-4-(2-(phenylthio)quinolin-3-yl)pyridine-3,5-dicarbonitriles” (2013).
Values after ≈ are worked out from the molar mass of the structure shown.

What was measured:
Type in all cases: functional
[1] = system: Aspergillus fumigatus; assay: Antifungal activity against Aspergillus fumigatus MTCC 3008 after 48 hr by broth microdilution method; conditions: MTCC 3008, 48 h
[2] = system: Bacillus subtilis; assay: Antibacterial activity against Bacillus subtilis MTCC 441 after 24 hr by broth microdilution method; conditions: MTCC 441, 24 h
[3] = system: Candida albicans; assay: Antifungal activity against Candida albicans MTCC 227 after 48 hr by broth microdilution method; conditions: MTCC 227, 48 h
[4] = system: Vibrio cholerae; assay: Antibacterial activity against Vibrio cholerae MTCC 3906 after 24 hr by broth microdilution method; conditions: MTCC 3906, 24 h
[5] = system: Clostridium tetani; assay: Antibacterial activity against Clostridium tetani MTCC 449 after 24 hr by broth microdilution method; conditions: MTCC 449, 24 h
[6] = system: Salmonella typhi; assay: Antibacterial activity against Salmonella enterica subsp. enterica serovar Typhi MTCC 98 after 24 hr by broth microdilution method; conditions: MTCC 98, 24 h
[7] = system: Streptococcus pneumoniae; assay: Antibacterial activity against Streptococcus pneumoniae MTCC 1936 after 24 hr by broth microdilution method; conditions: MTCC 1936, 24 h
[8] = system: Escherichia coli; assay: Antibacterial activity against Escherichia coli MTCC 443 after 24 hr by broth microdilution method; conditions: MTCC 443, 24 h

Compound `Cc1ccc(Sc2nc3ccc(C)cc3cc2C=O)cc1` has an MIC [1] of 250 µg/mL (≈ 852 µM), an MIC [2] of 250 µg/mL (≈ 852 µM) and an MIC [3] of 500 µg/mL (≈ 1700 µM). For the same compound, the MIC [4] was 125 µg/mL (≈ 426 µM), the MIC [5] was 250 µg/mL (≈ 852 µM) and the MIC [6] was 200 µg/mL (≈ 682 µM). It also gave an MIC [7] of 250 µg/mL (≈ 852 µM) and an MIC [8] of 250 µg/mL (≈ 852 µM).
For `N#Cc1c(N)nc(Sc2ccc(Cl)cc2)c(C#N)c1-c1cc2ccccc2nc1Sc1ccccc1`, the MIC [1] was 1000 µg/mL (≈ 1920 µM), the MIC [2] was 250 µg/mL (≈ 479 µM) and the MIC [3] was 1000 µg/mL (≈ 1920 µM). It also gave an MIC [4] of 250 µg/mL (≈ 479 µM), an MIC [5] of 200 µg/mL (≈ 383 µM) and an MIC [6] of 250 µg/mL (≈ 479 µM). For the same compound, the MIC [7] was 500 µg/mL (≈ 958 µM) and the MIC [8] was 250 µg/mL (≈ 479 µM).
`N#Cc1c(N)nc(Sc2ccc(Cl)cc2)c(C#N)c1-c1cc2ccccc2nc1Sc1ccc(Cl)cc1` was tested, and the MIC [1] was 1000 µg/mL (≈ 1800 µM), the MIC [2] was 250 µg/mL (≈ 449 µM) and the MIC [3] was 500 µg/mL (≈ 898 µM). For the same compound, the MIC [4] was 200 µg/mL (≈ 359 µM), the MIC [5] was 500 µg/mL (≈ 898 µM) and the MIC [6] was 200 µg/mL (≈ 359 µM). It also gave an MIC [7] of 100 µg/mL (≈ 180 µM) and an MIC [8] of 200 µg/mL (≈ 359 µM).
For `O=Cc1cc2ccccc2nc1Sc1ccc(Cl)cc1`, the MIC [1] was > 1000 µg/mL, the MIC [2] was 250 µg/mL (≈ 834 µM) and the MIC [3] was 1000 µg/mL (≈ 3340 µM). The MIC [4] was 200 µg/mL (≈ 667 µM), the MIC [5] was 200 µg/mL (≈ 667 µM) and the MIC [6] was 250 µg/mL (≈ 834 µM). For the same compound, the MIC [7] was 100 µg/mL (≈ 334 µM) and the MIC [8] was 250 µg/mL (≈ 834 µM).
Work on `Cc1ccc(Sc2nc3ccccc3cc2-c2c(C#N)c(N)nc(Sc3ccc(C)cc3)c2C#N)cc1` yielded an MIC [1] of 1000 µg/mL (≈ 1940 µM), an MIC [2] of 250 µg/mL (≈ 485 µM) and an MIC [3] of 1000 µg/mL (≈ 1940 µM). It also gave an MIC [4] of 200 µg/mL (≈ 388 µM), an MIC [5] of 250 µg/mL (≈ 485 µM) and an MIC [6] of 250 µg/mL (≈ 485 µM). It also gave an MIC [7] of 200 µg/mL (≈ 388 µM) and an MIC [8] of 250 µg/mL (≈ 485 µM).
For `Cc1ccc(Sc2nc3ccccc3cc2-c2c(C#N)c(N)nc(Sc3ccc(Cl)cc3)c2C#N)cc1`, the MIC [1] was > 1000 µg/mL, the MIC [2] was 200 µg/mL (≈ 373 µM) and the MIC [3] was > 1000 µg/mL. The MIC [4] was 200 µg/mL (≈ 373 µM), the MIC [5] was 100 µg/mL (≈ 187 µM) and the MIC [6] was 200 µg/mL (≈ 373 µM). It also gave an MIC [7] of 250 µg/mL (≈ 466 µM) and an MIC [8] of 200 µg/mL (≈ 373 µM).
For `CCn1cc(C(=O)O)c(=O)c2cc(F)c(N3CCNCC3)cc21` [NORFLOXACIN], the MIC [2] was 100 µg/mL (≈ 313 µM), the MIC [4] was 10 µg/mL (≈ 31.3 µM) and the MIC [5] was 50 µg/mL (≈ 157 µM). For the same compound, the MIC [6] was 10 µg/mL (≈ 31.3 µM), the MIC [7] was 10 µg/mL (≈ 31.3 µM) and the MIC [8] was 10 µg/mL (≈ 31.3 µM).
With `Cc1ccc(Sc2nc(N)c(C#N)c(-c3cc4ccccc4nc3Sc3ccc(Cl)cc3)c2C#N)cc1` the MIC [1] was > 1000 µg/mL, the MIC [2] was 100 µg/mL (≈ 187 µM) and the MIC [3] was 250 µg/mL (≈ 466 µM). For the same compound, the MIC [4] was 200 µg/mL (≈ 373 µM), the MIC [5] was 250 µg/mL (≈ 466 µM) and the MIC [6] was 100 µg/mL (≈ 187 µM). For the same compound, the MIC [7] was 200 µg/mL (≈ 373 µM) and the MIC [8] was 62.5 µg/mL (≈ 117 µM).
In the case of `CC1(C)S[C@@H]2[C@H](NC(=O)[C@H](N)c3ccccc3)C(=O)N2[C@H]1C(=O)O` [AMPICILLIN], the MIC [2] was 250 µg/mL (≈ 715 µM), the MIC [4] was 100 µg/mL (≈ 286 µM) and the MIC [5] was 250 µg/mL (≈ 715 µM). For the same compound, the MIC [6] was 100 µg/mL (≈ 286 µM), the MIC [7] was 100 µg/mL (≈ 286 µM) and the MIC [8] was 100 µg/mL (≈ 286 µM).
For `N#Cc1c(N)nc(Sc2ccccc2)c(C#N)c1-c1cc2ccccc2nc1Sc1ccc(Cl)cc1`, the MIC [1] was 1000 µg/mL (≈ 1920 µM), the MIC [2] was 100 µg/mL (≈ 192 µM) and the MIC [3] was 200 µg/mL (≈ 383 µM). For the same compound, the MIC [4] was 100 µg/mL (≈ 192 µM), the MIC [5] was 200 µg/mL (≈ 383 µM) and the MIC [6] was 200 µg/mL (≈ 383 µM). It also gave an MIC [7] of 200 µg/mL (≈ 383 µM) and an MIC [8] of 100 µg/mL (≈ 192 µM).
Work on `Cc1ccc2nc(Sc3ccc(Cl)cc3)c(-c3c(C#N)c(N)nc(Sc4ccc(Cl)cc4)c3C#N)cc2c1` yielded an MIC [1] of 500 µg/mL (≈ 876 µM), an MIC [2] of 500 µg/mL (≈ 876 µM) and an MIC [3] of 500 µg/mL (≈ 876 µM). The MIC [4] was 200 µg/mL (≈ 351 µM), the MIC [5] was 500 µg/mL (≈ 876 µM) and the MIC [6] was 100 µg/mL (≈ 175 µM). For the same compound, the MIC [7] was 500 µg/mL (≈ 876 µM) and the MIC [8] was 50 µg/mL (≈ 87.6 µM).
In the case of `Cc1ccc2nc(Sc3ccc(Cl)cc3)c(-c3c(C#N)c(N)nc(Sc4ccccc4)c3C#N)cc2c1`, the MIC [1] was > 1000 µg/mL, the MIC [2] was 250 µg/mL (≈ 466 µM) and the MIC [3] was 1000 µg/mL (≈ 1870 µM). The MIC [4] was 100 µg/mL (≈ 187 µM), the MIC [5] was 250 µg/mL (≈ 466 µM) and the MIC [6] was 200 µg/mL (≈ 373 µM). The MIC [7] was 250 µg/mL (≈ 466 µM) and the MIC [8] was 62.5 µg/mL (≈ 117 µM).
For `Cc1ccc(Sc2nc3ccc(C)cc3cc2-c2c(C#N)c(N)nc(Sc3ccc(Cl)cc3)c2C#N)cc1`, the MIC [1] was > 1000 µg/mL, the MIC [2] was 250 µg/mL (≈ 454 µM) and the MIC [3] was 1000 µg/mL (≈ 1820 µM). It also gave an MIC [4] of 200 µg/mL (≈ 364 µM), an MIC [5] of 100 µg/mL (≈ 182 µM) and an MIC [6] of 100 µg/mL (≈ 182 µM). It also gave an MIC [7] of 250 µg/mL (≈ 454 µM) and an MIC [8] of 100 µg/mL (≈ 182 µM).
For `Cc1ccc(Sc2nc(N)c(C#N)c(-c3cc4ccccc4nc3Sc3ccccc3)c2C#N)cc1`, the MIC [1] was 250 µg/mL (≈ 498 µM), the MIC [2] was 200 µg/mL (≈ 399 µM) and the MIC [3] was 1000 µg/mL (≈ 1990 µM). For the same compound, the MIC [4] was 250 µg/mL (≈ 498 µM), the MIC [5] was 250 µg/mL (≈ 498 µM) and the MIC [6] was 125 µg/mL (≈ 249 µM). For the same compound, the MIC [7] was 250 µg/mL (≈ 498 µM) and the MIC [8] was 100 µg/mL (≈ 199 µM).
